Results reported in patent US9815851B2, “Pyrrolo carboxamides as modulators of orphan nuclear receptor RAR-related orphan receptor-gamma (RORγ, NR1F3) activity and for the treatment of chronic inflammatory and autoimmune diseases” (PHENEX PHARMACEUTICALS AG, priority 2011, dated 2017).
Like-named read-outs stand apart in the source and are kept apart here.

What was measured:
[1] = molecular target: T1, RORγ ligand binding domain (LBD) (Homo sapiens, UniProt P51449); test: TR-FRET Activity Assay (ligand sensing, RORγ-LBD / coactivator peptide interaction, LANCE); format: biochemical
T1 construct: made in house; host or cells: E. coli BL-21 (BL3), vector pDEST15
T1 sequence (P51449 269-508 limits assumed): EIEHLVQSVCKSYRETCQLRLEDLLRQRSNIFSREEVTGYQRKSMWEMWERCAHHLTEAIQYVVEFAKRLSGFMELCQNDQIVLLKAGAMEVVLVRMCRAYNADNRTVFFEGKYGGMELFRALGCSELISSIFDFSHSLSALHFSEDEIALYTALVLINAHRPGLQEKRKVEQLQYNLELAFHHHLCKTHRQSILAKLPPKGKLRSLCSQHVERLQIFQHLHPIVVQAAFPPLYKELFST

RORγ = molecular target: T2, RORγ (UniProt P51449); test: RORγ Gal4 Reporter Gene Assay in 293T cells (firefly and renilla luciferase); format: cell-based, human
T2 sequence (P51449 1-518): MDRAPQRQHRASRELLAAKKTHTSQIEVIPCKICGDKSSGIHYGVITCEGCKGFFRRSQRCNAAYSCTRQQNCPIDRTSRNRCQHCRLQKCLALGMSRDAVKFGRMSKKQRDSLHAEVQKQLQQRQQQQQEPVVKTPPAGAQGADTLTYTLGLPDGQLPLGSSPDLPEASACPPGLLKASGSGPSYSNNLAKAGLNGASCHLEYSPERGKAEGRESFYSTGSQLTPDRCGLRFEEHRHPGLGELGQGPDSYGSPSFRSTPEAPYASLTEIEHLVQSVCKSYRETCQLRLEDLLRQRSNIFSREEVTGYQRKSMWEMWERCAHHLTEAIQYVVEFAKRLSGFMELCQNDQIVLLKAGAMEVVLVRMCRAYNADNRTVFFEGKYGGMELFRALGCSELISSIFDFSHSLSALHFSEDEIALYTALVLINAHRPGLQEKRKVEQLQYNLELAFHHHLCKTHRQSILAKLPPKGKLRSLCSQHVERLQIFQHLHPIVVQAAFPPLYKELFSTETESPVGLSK

[2] = first value of the cell FRET/FF/REN, TR-FRET activity assay, read-out: pIC50 (FRET) (converted)
[3] = second value of the cell, Gal4 reporter gene assay in 293T cells, firefly luciferase
[4] = third value of the cell, Gal4 reporter gene assay in 293T cells, renilla normalised luciferase

| Compound | IC50 [1, 2] | pIC50 (FF) (RORγ; [3]) | pIC50 (REN) (RORγ; [4]) | IC50 [1] | pIC50 (FF) (RORγ) | pIC50 (REN) (RORγ) |
| --- | --- | --- | --- | --- | --- | --- |
| Cc1c(C(=O)NC2CCOCC2)cc(-c2ccc(-c3ccnn3C(C)C)c(C(F)(F)F)c2)n1CC1CCCCC1 [17/249] | 0.501 µM | 6.6 | 6.7 | – | – | – |
| Cc1c(C(=O)NC2CCOCC2)cc(-c2ccc(-c3cnn(C(C)(C)C)c3)c(C(C)(C)C)c2)n1CC1CCCCC1 [26/2] | 0.2 µM | 7.2 | 7.2 | – | – | – |
| Cc1c(C(=O)N2CCOCC2)cc(-c2ccc(S(=O)(=O)NC(C)(C)C)c(C(F)(F)F)c2)n1CC1CCCCC1 [17/198] | – | – | – | 0.501 µM | 6.3/6.8/6.9 | 6.3/6.8/6.9 |
| Cc1c(C(=O)NCCCNS(C)(=O)=O)cc(-c2cc(C(C)(C)C)c3c(c2)C2(CCO3)CC2)n1CC1CCCCC1 [17/3] | – | – | – | 0.398 µM | – | – |
| Cc1c(C(=O)NCC(C)(C)O)cc(-c2cc(C(=O)NC(C)(C)C)cc(C(C)(C)C)c2)n1CC1CCCCC1 [15/8] | – | – | – | 1 µM | 6.0/7.3/7.4 | 6.0/7.3/7.4 |
| Cc1c(C(=O)NC2CC2)cc(-c2cc(C(C)(C)C)c3c(c2)C2(CCO3)CC2)n1CC1CCCCC1 [1/92] | 0.2 µM | 7.0 | 6.9 | – | – | – |
| COCC(=O)NC(C)(C)CNC(=O)c1cc(-c2cc(C(C)(C)C)c3c(c2)C2(CCO3)CC2)n(CC2CCCCC2)c1C [17/124] | – | – | – | 0.794 µM | 6.1/7.4/7.5 | 6.1/7.4/7.5 |
| Cc1c(C(=O)NC2CCOCC2)cc(-c2ccc(S(=O)(=O)NC(C)(C)C)c3cnccc23)n1CC1CCCCC1 [17/369] | – | – | – | 1.26 µM | 5.9/7.5/7.5 | 5.9/7.5/7.5 |
| Cc1c(C(=O)NC2(C(=O)O)CC2)cc(-c2cc(C(C)(C)C)c3c(c2)C2(CCO3)CC2)n1CC1CCCCC1 [17/50] | – | – | – | 3.16 µM | – | – |
| Cc1c(C(=O)NCC(C)(C)NS(C)(=O)=O)cc(-c2cc(C(C)(C)C)cc(C(C)(C)C)c2)n1CC1CCCCC1 [1/4] | – | – | – | 0.316 µM | 6.5/7.5/7.6 | 6.5/7.5/7.6 |
| Cc1c(C(=O)NCCN2CCOCC2)cc(-c2cc(C(C)(C)C)cc(C3(C)CC3)c2)n1CC1CCCCC1 [1/88] | – | – | – | 0.398 µM | 6.4/6.5/6.5 | 6.4/6.5/6.5 |
| COCc1c(C(=O)NCC(C)(C)O)cc(-c2ccc(S(=O)(=O)NC(C)(C)C)c(C(C)(C)C)c2)n1CC1CCCCC1 [1/28] | 0.794 µM | 6.7 | 6.8 | – | – | – |
| Cc1c(C(=O)NC[C@H]2CCCO2)cc(-c2cc(C(C)(C)C)c3c(c2)C2(CCO3)CC2)n1CC1CCCCC1 [17/5] | 0.316 µM | 6.4 | 6.4 | – | – | – |
| Cc1c(C(=O)NCC(C)(C)O)cc(-c2cc(C(=O)N(C)C(C)(C)C)cc(C(C)(C)C)c2)n1CC1CCCCC1 [15/7] | – | – | – | 1.26 µM | – | – |
| Cc1c(C(=O)N2CCS(=O)(=O)CC2)cc(-c2ccc(S(=O)(=O)NC(C)(C)C)c(C(C)(C)C)c2)n1CC1CCCCC1 [17/100] | – | – | – | 0.794 µM | – | – |
| Cc1c(C(=O)NCC2CNCCO2)cc(-c2cc(C(C)(C)C)c3c(c2)C2(CCO3)CC2)n1CC1CCCCC1.Cl (centres unmarked) [17/7] | – | – | – | – | 5.5/<4.7/<4.7 | 5.5/<4.7/<4.7 |
| Cc1c(C(=O)N[C@H]2C[C@](C)(C(=O)O)C2)cc(-c2cc(C(C)(C)C)cc(C3(C)CC3)c2)n1CC1CCCCC1 [17/171] | – | – | – | 0.794 µM | – | – |
| COCOc1ccc(-c2cc(C(=O)NC3COC3)c(C)n2CC2CCCCC2)cc1C(C)(C)C [1/24] | – | – | – | 0.631 µM | – | – |
| Cc1c(C(=O)NCC(C)(C)N)cc(-c2cc(C(C)(C)C)c3c(c2)C2(CCO3)CC2)n1CC1CCCCC1.Cl [17/27] | – | – | – | – | 5.6/6.3/6.5 | 5.6/6.3/6.5 |
| COC(C)(C)c1cc(-c2cc(C(=O)NC3COC3)c(C)n2CC2CCCCC2)cc(C(C)(C)C)c1 [1/107] | – | – | – | 0.794 µM | – | – |

Now from value to molecule, other results behind:

| IC50 [1, 2] | pIC50 (FF) (RORγ; [3]) | pIC50 (REN) (RORγ; [4]) | Compound | IC50 [1] | pIC50 (FF) (RORγ) | pIC50 (REN) (RORγ) |
| --- | --- | --- | --- | --- | --- | --- |
| 0.631 µM | 6.6 | 6.7 | Cc1c(C(=O)N2CCS(=O)(=O)CC2)cc(-c2ccc(S(=O)(=O)NC(C)(C)C)c(C(F)(F)F)c2)n1CC1CCCCC1 [17/199] | – | – | – |
| 1 µM | < 4.7 | < 4.7 | Cc1c(C(=O)NCCc2nn[nH]n2)cc(-c2ccc(S(=O)(=O)NC(C)(C)C)c(C(C)(C)O)c2)n1CC1CCCCC1 [17/336] | – | – | – |
| 2.51 µM | 6.1 | 6.0 | CCNC(=O)NC(C)(C)CNC(=O)c1cc(-c2cc(C(C)(C)C)c3c(c2)C2(CCO3)CC2)n(CC2CCCCC2)c1C [17/120] | – | – | – |
| 0.501 µM | 6.6 | 6.6 | Cc1c(C(=O)N[C@H]2C[C@H](C(=O)O)C2)cc(-c2ccc(S(=O)(=O)NC(C)(C)C)c(C(C)(C)O)c2)n1CC1CCCCC1 [17/328] | – | – | – |
| 15.8 µM | < 4.7 | < 4.7 | Cc1c(C(=O)N[C@H]2C[C@H](C(=O)O)C2)cc(-c2cc(C(C)(C)O)cc3ccccc23)n1CC1CCCCC1 [17/187] | – | – | – |
| 2 µM | 6.4 | 6.4 | Cc1c(C(=O)NCCC(C)(C)C(=O)O)cc(-c2ccc(S(=O)(=O)NC3(C#N)CC3)c(C(F)(F)F)c2)n1CC1CCCCC1 [17/361] | – | – | – |
| 5.01 µM | 7.1 | 7.5 | Cc1c(C(=O)N[C@H]2C[C@H](C(=O)O)C2)cc(-c2cc(Cl)cc(C3(C)CC3)c2)n1CC1CCCCC1 [17/299] | – | – | – |
| 0.2 µM | 7.1 | 7.2 | Cc1c(C(=O)NC2CCOCC2)cc(-c2ccc(S(=O)(=O)NC(C)(C)C)c(Cl)c2)n1CC1CCCCC1 [17/234] | – | – | – |
| 3.16 µM | 5.8 | 5.7 | Cc1c(C(=O)NC2SC(=O)NC2=O)cc(-c2cc(C(C)(C)C)c3c(c2)C2(CCO3)CC2)n1CC1CCCCC1 (centres unmarked) [17/24] | – | – | – |
| 0.316 µM | 6.7 | 6.9 | Cc1c(C(=O)NC2CCOCC2)cc(-c2ccc(S(=O)(=O)NC(C)(C)C)c(C(F)F)c2)n1CC1CCC1 [17/126] | – | – | – |
| 1.58 µM | 6.8 | 6.9 | Cc1c(C(=O)NCCCC(=O)O)cc(-c2cc(C(C)(C)C)cc(C(C)(C)C)c2)n1CC1CCCCC1 [1/69] | – | – | – |
| 0.126 µM | 8.2 | 8.3 | CCC(C)(C)NS(=O)(=O)c1ccc(-c2cc(C(=O)NC3CCOCC3)c(C)n2CC2CCCCC2)cc1C(F)(F)F [17/83] | – | – | – |
| 0.251 µM | 8.3 | 8.5 | Cc1c(C(=O)N2CC3(CCOCC3)C2)cc(-c2ccc(S(=O)(=O)NC(C)(C)C)c3ccccc23)n1CC1CCCCC1 [17/266] | – | – | – |
| 0.794 µM | 6.8 | 6.8 | Cc1c(C(=O)NCCS(C)(=O)=O)cc(-c2ccc(S(=O)(=O)NC(C)(C)C)c(C(C)(C)C)c2)n1CC1CCCCC1 [1/130] | – | – | – |
| 0.2 µM | 7.4 | 7.4 | Cc1c(C(=O)NC2CCOCC2)cc(-c2cc(C(C)(C)C)c3c(c2)C2(CCO3)CC2)n1CC1CCCCC1 [1/93] | – | – | – |
| 0.398 µM | 7.3 | 7.3 | Cc1c(C(=O)NCC(C)(C)NS(C)(=O)=O)cc(-c2cc(C(C)(C)C)c3c(c2)C2(CCO3)CC2)n1CC1CCCCC1 [1/103] | – | – | – |
| 0.126 µM | 7.6 | 7.7 | CCC(C)(C)NS(=O)(=O)c1ccc(-c2cc(C(=O)NC3CCOCC3)c(C)n2CC2CCC2)cc1C(F)(F)F [17/217] | – | – | – |
| 1.26 µM | 6.6 | 6.7 | Cc1c(C(=O)N2CC3(COCC(=O)N3)C2)cc(-c2ccc(S(=O)(=O)NC(C)(C)C)c(C(F)(F)F)c2)n1CC1CCCCC1 [17/293] | – | – | – |
